Read-outs that look alike come from different tables or passages of the source.
Tests used:
SMARCA4 = SMARCA4 (Homo sapiens, UniProt P51532); assay: HiBiT assay for protein degradation, Hela SMARCA4-HiBiT cells (A series); type: cell-based; design: fuse HiBiT to the carboxy terminus of SMARCA2 (Promega CS302365) or SMARCA4 (Promega CS3023225); host or cells: HeLa (CRISPR/Cas9 HiBiT knock-in); settings: for DC50: read-out: SMARC A4 Hela HiBit DC50
Procedure, shortened: (§1)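 HeLa cells engineered by CRISPR/Cas9 to carry a HiBiT tag fused to the C-terminus of SMARCA4 (Promega CS3023225) were grown in DMEM supplemented with FBS and penicillin-streptomycin. After compound exposure, remaining SMARCA4 protein was quantified using the Nano-Glo® HiBiT Lytic Detection Assay (Promega N3050), and curves were fitted in GraphPad Prism.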

SMARCA2 = SMARCA2 (Homo sapiens, UniProt P51531); assay: HiBiT assay for protein degradation, Hela SMARCA2-HiBiT cells (A series); type: cell-based; design: Hela cells were genetically modified via CRISPR/Cas9 to fuse HiBiT to the carboxy terminus of SMARCA2; host or cells: HeLa (CRISPR/Cas9 HiBiT knock-in); settings: for DC50: read-out: SMARC A2 Hela HiBit DC50; for Dmax: read-out: SMARC A2 Hela HiBit Dmax (%)
Procedure, shortened: as §1, with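 “SMARCA2” for “SMARCA4”, “CS302365)” for “CS3023225)”, “treatment,” for “compound exposure,”, “with” for “using”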

[1] = Hela SMARCA4-HiBiT cells, 24 hours treatment
[2] = Hela SMARCA4-HiBiT cells, 24 hours treatment, read-out: SMARC A4 Hela HiBit Dmax
[3] = Hela SMARCA2-HiBiT cells, 24 hours treatment

SMARCA4, sequence (P51532 whole entry, the tested form may be a part): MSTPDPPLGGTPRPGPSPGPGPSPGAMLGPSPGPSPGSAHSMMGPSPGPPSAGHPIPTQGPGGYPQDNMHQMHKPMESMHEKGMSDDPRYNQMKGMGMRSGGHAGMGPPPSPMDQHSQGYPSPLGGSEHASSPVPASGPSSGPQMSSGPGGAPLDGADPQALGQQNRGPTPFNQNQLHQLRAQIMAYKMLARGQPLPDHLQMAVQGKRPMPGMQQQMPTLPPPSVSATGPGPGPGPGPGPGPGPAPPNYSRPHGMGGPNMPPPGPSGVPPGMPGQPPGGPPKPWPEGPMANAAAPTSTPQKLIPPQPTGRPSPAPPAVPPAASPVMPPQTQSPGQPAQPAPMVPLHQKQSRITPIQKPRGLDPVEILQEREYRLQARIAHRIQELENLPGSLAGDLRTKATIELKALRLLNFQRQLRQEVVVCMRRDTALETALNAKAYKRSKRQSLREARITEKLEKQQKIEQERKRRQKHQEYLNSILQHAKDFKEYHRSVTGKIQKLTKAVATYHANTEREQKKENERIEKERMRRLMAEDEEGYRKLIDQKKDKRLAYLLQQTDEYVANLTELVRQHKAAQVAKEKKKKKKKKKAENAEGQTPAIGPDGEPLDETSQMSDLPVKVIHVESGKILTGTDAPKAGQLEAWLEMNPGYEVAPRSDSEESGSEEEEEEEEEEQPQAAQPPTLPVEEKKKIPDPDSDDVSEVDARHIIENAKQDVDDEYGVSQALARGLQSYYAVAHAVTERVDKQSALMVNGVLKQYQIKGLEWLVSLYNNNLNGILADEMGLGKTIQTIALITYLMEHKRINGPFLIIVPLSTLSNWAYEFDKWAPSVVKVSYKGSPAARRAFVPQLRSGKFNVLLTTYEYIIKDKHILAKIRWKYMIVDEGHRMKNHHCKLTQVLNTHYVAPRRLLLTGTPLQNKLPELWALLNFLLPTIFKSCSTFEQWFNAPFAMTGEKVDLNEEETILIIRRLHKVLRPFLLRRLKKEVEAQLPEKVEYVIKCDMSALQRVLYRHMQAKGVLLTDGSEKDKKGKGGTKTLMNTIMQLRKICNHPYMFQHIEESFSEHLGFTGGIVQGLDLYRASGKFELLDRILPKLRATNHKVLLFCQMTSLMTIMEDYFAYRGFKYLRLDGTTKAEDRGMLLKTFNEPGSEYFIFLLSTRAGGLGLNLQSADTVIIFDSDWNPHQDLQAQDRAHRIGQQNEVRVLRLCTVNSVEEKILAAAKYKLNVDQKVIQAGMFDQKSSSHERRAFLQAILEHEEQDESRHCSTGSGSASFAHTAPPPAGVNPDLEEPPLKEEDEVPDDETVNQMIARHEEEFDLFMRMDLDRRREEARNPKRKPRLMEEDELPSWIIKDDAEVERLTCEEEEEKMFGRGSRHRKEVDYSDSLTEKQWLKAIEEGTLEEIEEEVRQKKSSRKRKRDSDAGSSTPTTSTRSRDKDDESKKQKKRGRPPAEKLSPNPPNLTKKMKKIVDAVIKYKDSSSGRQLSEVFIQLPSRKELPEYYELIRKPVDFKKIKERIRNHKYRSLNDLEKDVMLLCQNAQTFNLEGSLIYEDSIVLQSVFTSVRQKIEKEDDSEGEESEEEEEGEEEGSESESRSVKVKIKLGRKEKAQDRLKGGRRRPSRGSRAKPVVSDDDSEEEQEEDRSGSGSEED
SMARCA2, sequence (P51531 whole entry): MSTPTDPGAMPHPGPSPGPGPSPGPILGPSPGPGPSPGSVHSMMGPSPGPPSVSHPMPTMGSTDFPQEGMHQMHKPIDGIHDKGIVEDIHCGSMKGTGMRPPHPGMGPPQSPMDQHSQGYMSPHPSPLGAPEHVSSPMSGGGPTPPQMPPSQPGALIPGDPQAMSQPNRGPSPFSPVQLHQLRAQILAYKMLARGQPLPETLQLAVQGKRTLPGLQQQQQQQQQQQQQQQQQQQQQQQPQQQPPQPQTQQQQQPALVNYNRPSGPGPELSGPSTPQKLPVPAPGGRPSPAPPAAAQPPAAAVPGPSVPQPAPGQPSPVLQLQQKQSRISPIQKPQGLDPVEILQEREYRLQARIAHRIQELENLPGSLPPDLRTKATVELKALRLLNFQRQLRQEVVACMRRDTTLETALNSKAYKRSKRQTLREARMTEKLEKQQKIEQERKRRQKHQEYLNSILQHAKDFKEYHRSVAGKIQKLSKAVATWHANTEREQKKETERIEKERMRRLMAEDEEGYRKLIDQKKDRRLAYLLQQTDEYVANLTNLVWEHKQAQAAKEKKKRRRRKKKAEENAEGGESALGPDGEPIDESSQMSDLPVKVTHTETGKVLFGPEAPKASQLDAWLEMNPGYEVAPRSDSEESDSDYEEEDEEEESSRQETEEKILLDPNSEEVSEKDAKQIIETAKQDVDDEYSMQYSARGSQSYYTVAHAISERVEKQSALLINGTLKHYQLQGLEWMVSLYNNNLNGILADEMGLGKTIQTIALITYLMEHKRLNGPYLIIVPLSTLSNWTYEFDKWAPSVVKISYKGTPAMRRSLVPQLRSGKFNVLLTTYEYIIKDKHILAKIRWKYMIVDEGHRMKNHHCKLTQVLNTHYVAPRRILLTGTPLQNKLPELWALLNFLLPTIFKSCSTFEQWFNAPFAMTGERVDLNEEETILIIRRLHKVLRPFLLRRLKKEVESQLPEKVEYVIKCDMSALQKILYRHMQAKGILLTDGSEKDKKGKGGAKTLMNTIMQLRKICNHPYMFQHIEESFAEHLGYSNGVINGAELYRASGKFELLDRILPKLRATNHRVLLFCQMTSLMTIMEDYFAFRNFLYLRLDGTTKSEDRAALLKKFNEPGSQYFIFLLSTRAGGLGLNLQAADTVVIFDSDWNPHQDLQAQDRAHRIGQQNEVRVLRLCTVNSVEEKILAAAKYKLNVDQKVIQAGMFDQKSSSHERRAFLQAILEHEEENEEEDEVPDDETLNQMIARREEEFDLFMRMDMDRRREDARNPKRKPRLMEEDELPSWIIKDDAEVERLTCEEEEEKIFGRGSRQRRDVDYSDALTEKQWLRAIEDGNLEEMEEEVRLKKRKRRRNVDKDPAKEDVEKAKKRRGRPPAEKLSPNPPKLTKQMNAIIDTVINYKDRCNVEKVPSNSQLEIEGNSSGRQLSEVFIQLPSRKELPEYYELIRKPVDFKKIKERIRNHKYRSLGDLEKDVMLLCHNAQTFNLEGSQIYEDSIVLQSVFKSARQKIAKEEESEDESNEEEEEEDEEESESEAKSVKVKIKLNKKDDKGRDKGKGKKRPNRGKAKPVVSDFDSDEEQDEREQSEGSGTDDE

Row | DC50 (SMARCA4; [1]) [nM] | Dmax (SMARCA4; [2]) [%] | DC50 (SMARCA2; [3]) [nM] | Dmax (SMARCA2; [3]) [%] | SMILES | also measured
1 | > 1000 | < 50 | > 1000 | < 50 | Cc1ncsc1-c1ccc([C@H](CNC(=O)[C@H]2CC[C@H](CN3CCC(c4ccc5c(c4)-n4c(nc(=O)c6c(Br)cccc64)C54CCCCC4)CC3)CC2)NC(=O)[C@@H]2C[C@@H](O)CN2C(=O)[C@@H](n2cc(C3CC3)nn2)C(C)(C)C)cc1 [Compound A116, (2S,4R)—N—((R)-2-((1r,4R)-4-((4-(4′-bromo-5′-oxo-5′H-spiro[cyclohexane-1,7′-indolo[1,2-a]quinazolin]-10′-yl)piperidin-1-yl)methyl)cyclohexane-1-carboxamido)-1-(4-(4-methylthiazol-5-yl)phenyl)ethyl)-1-((S)-2-(4-cyclopropyl-1H-1,2,3-triazol-1-yl)-3,3-dimethylbutanoyl)-4-hydroxypyrrolidine-2-carboxamide] | 
2 | < 100 |  | < 100 | > 90 | Cc1ncsc1-c1ccc([C@H](C)NC(=O)[C@@H]2C[C@@H](O)CN2C(=O)[C@@H](n2cc(CCCCCN3CCC(c4ccc5c(c4)C4(CCCCC4)c4nc(=O)c6c(Br)cccc6n4-5)CC3)nn2)C(C)(C)C)cc1 [Compound A57, (2S,4R)-1-((S)-2-(4-(5-(4-(4′-bromo-5′-oxo-5′H-spiro[cyclohexane-1,7′-indolo[1,2-a]quinazolin]-9′-yl)piperidin-1-yl)pentyl)-1H-1,2,3-triazol-1-yl)-3,3-dimethylbutanoyl)-4-hydroxy-N—((S)-1-(4-(4-methylthiazol-5-yl)phenyl)ethyl)pyrrolidine-2-carboxamide] | Dmax (SMARCA4; Hela SMARCA4-HiBiT cells, 24 hours treatment, read-out: SMARC A4 Hela HiBit Dmax(%)): > 90%
3 | 100 to 1000 | 50 to 69 | < 10 | > 90 | Cc1ccccc1-c1ccc([C@H](CN2CCOCC2)NC(=O)[C@@H]2C[C@@H](O)CN2C(=O)[C@@H](n2cc([C@H]3CC[C@H](CN4CCC(c5ccc6c(c5)-n5c(nc(=O)c7c(Cl)cccc75)C65CCCCC5)CC4)CC3)nn2)C(C)(C)C)cc1 [Compound A163, (2S,4R)-1-((S)-2-(4-((1r,4S)-4-((4-(4′-chloro-5′-oxo-5′H-spiro[cyclohexane-1,7′-indolo[1,2-a]quinazolin]-10′-yl)piperidin-1-yl)methyl)cyclohexyl)-1H-1,2,3-triazol-1-yl)-3,3-dimethylbutanoyl)-4-hydroxy-N—((R)-1-(2′-methyl-[1,1′-biphenyl]-4-yl)-2-morpholinoethyl)pyrrolidine-2-carboxamide] | 
4 | > 1000 | < 50 | < 10 | > 90 | COCCOCCOCCOC[C@H](NC(=O)[C@@H]1C[C@@H](O)CN1C(=O)[C@@H](n1cc([C@H]2CC[C@H](CN3CCC(c4ccc5c(c4)-n4c(nc(=O)c6c(Cl)cccc64)C5(C)C)CC3)CC2)nn1)C(C)(C)C)c1ccc(-c2scnc2C)cc1 [Compound A150, (2S,4R)-1-((S)-2-(4-((1r,4S)-4-((4-(4-chloro-7,7-dimethyl-5-oxo-5,7-dihydroindolo[1,2-a]quinazolin-10-yl)piperidin-1-yl)methyl)cyclohexyl)-1H-1,2,3-triazol-1-yl)-3,3-dimethylbutanoyl)-4-hydroxy-N—((R)-13-(4-(4-methylthiazol-5-yl)phenyl)-2,5,8,11-tetraoxatridecan-13-yl)pyrrolidine-2-carboxamide] | 
5 | > 1000 | 50 to 69 | < 10 | > 90 | Cc1ncsc1-c1ccc([C@H](CN2CCOCC2)NC(=O)[C@@H]2C[C@@H](O)CN2C(=O)[C@@H](n2cc([C@H]3CC[C@H](CN4CCC(c5ccc6c(c5)-n5c(nc(=O)c7c(Cl)cccc75)C65CCCCC5)CC4)CC3)nn2)C(C)(C)O)cc1 [Compound A158, (2S,4R)-1-((S)-2-(4-((1r,4S)-4-((4-(4′-chloro-5′-oxo-5′H-spiro[cyclohexane-1,7′-indolo[1,2-a]quinazolin]-10′-yl)piperidin-1-yl)methyl)cyclohexyl)-1H-1,2,3-triazol-1-yl)-3-hydroxy-3-methylbutanoyl)-4-hydroxy-N-((R)-1-(4-(4-methylthiazol-5-yl)phenyl)-2-morpholinoethyl)pyrrolidine-2-carboxamide] | 
6 | > 1000 | < 50 | 10 to 100 | 70 to 90 | Cc1nc(C)c(-c2ccc([C@H](CN3CCOCC3)NC(=O)[C@@H]3C[C@@H](O)CN3C(=O)[C@@H](n3cc([C@H]4CC[C@H](CN5CCC(c6ccc7c(c6)-n6c(nc(=O)c8c(Cl)cccc86)C76CCCCC6)CC5)CC4)nn3)C(C)(C)C)cc2)o1 [Compound A166, (2S,4R)-1-((S)-2-(4-((1r,4S)-4-((4-(4′-chloro-5′-oxo-5′H-spiro[cyclohexane-1,7′-indolo[1,2-a]quinazolin]-10′-yl)piperidin-1-yl)methyl)cyclohexyl)-1H-1,2,3-triazol-1-yl)-3,3-dimethylbutanoyl)-N—((R)-1-(4-(2,4-dimethyloxazol-5-yl)phenyl)-2-morpholinoethyl)-4-hydroxypyrrolidine-2-carboxamide] | 
7 | > 1000 | < 50 | 100 to 1000 | 70 to 90 | CC1(C)c2ccc(C3CCN(C[C@H]4CC[C@H](c5cn([C@H](C(=O)N6C[C@H](O)C[C@H]6C(=O)N[C@@H](CN6CCOCC6)c6ccc(-c7scnc7C(=O)O)cc6)C6CCOCC6)nn5)CC4)CC3)cc2-n2c1nc(=O)c1c(Cl)cccc12 [Compound A133, 5-(4-((R)-1-((2S,4R)-1-((S)-2-(4-((1r,4S)-4-((4-(4-chloro-7,7-dimethyl-5-oxo-5,7-dihydroindolo[1,2-a]quinazolin-10-yl)piperidin-1-yl)methyl)cyclohexyl)-1H-1,2,3-triazol-1-yl)-2-(tetrahydro-2H-pyran-4-yl)acetyl)-4-hydroxypyrrolidine-2-carboxamido)-2-morpholinoethyl)phenyl)thiazole-4-carboxylic acid] | 
8 |  |  |  |  | Cc1ncsc1-c1ccc([C@H](C)NC(=O)[C@@H]2C[C@@H](O)CN2C(=O)[C@@H](n2cc(CCCCCN3CCC(c4ccc5c(c4)-n4c(nc(=O)c6c(Br)cccc64)C54CCCCC4)CC3)nn2)C(C)(C)C)cc1 [Compound A46, (2S,4R)-1-((S)-2-(4-(5-(4-(4′-bromo-5′-oxo-5′H-spiro[cyclohexane-1,7′-indolo[1,2-a]quinazolin]-10′-yl)piperidin-1-yl)pentyl)-1H-1,2,3-triazol-1-yl)-3,3-dimethylbutanoyl)-4-hydroxy-N—((S)-1-(4-(4-methylthiazol-5-yl)phenyl)ethyl)pyrrolidine-2-carboxamide] | SMARC A4 Hela HiBit Dmax(%) (SMARCA4; [1]): B (B (70-90% degradation)); DC50 (SMARCA4): < 100 nM; SMARC A2 Hela HiBit Dmax (%) (SMARCA2; [3]): A (A (>90% degradation)); DC50 (SMARCA2): < 100 nM

Row | SMILES | DC50 (SMARCA4; [1]) [nM] | Dmax (SMARCA4; [2]) [%] | DC50 (SMARCA2; [3]) [nM] | Dmax (SMARCA2; [3]) [%] | also measured
9 | Cc1ncsc1-c1ccc([C@H](C)NC(=O)[C@@H]2C[C@@H](O)CN2C(=O)[C@@H](NC(=O)[C@H]2CC[C@H](CN3CCC(c4ccc5c(c4)-n4c(nc(=O)c6c(Br)cccc64)C54CCCCC4)CC3)CC2)C(C)(C)C)cc1 [Compound A41, (2S,4R)-1-((S)-2-((1r,4S)-4-((4-(4′-bromo-5′-oxo-5′H-spiro[cyclohexane-1,7′-indolo[1,2-a]quinazolin]-10′-yl)piperidin-1-yl)methyl)cyclohexane-1-carboxamido)-3,3-dimethylbutanoyl)-4-hydroxy-N—((S)-1-(4-(4-methylthiazol-5-yl)phenyl)ethyl)pyrrolidine-2-carboxamide] |  |  | < 100 |  | Dmax (SMARCA4; HeLa, read-out: SMARC A4 Hela HiBit Dmax(%)): < 50%; SMARC A4 Hela HiBit DC50(nM) (SMARCA4; [1]): No Fit; Dmax (SMARCA2; HeLa): 70 to 90%
10 | Cc1ncsc1-c1ccc([C@H](C)NC(=O)[C@@H]2C[C@@H](O)CN2C(=O)[C@@H](n2cc([C@H]3CC[C@H](CN4CCC(c5ccc6c(c5)-n5c(nc(=O)c7c(Br)cccc75)C65CCCCC5)CC4)CC3)nn2)C(C)(C)C)cc1 [Compound A49, (2S,4R)-1-((S)-2-(4-((1r,4S)-4-((4-(4′-bromo-5′-oxo-5′H-spiro[cyclohexane-1,7′-indolo[1,2-a]quinazolin]-10′-yl)piperidin-1-yl)methyl)cyclohexyl)-1H-1,2,3-triazol-1-yl)-3,3-dimethylbutanoyl)-4-hydroxy-N—((S)-1-(4-(4-methylthiazol-5-yl)phenyl)ethyl)pyrrolidine-2-carboxamide] | 100 to 500 |  | < 100 |  | SMARC A4 Hela HiBit Dmax(%) (SMARCA4; [1]): B (B (70-90% degradation)); SMARC A2 Hela HiBit Dmax (%) (SMARCA2; [3]): A (A (>90% degradation))

— US20260092071A1, “COMPOUNDS AND COMPOSITIONS AS SMARCA2/4 DEGRADERS AND USES THEREOF” (REGENTS OF THE UNIVERSITY OF MICHIGAN, priority 2022, published 2026)
